In patent US10167262B2, “Herbicidal substituted 3-arylpyrazoles” (FMC CORPORATION, priority 2014, dated 2019):

What was measured:
Type in all cases: in vivo
[1] = tested on: velvetleaf (Abutilon theophrasti); assay: Test A pre-/postemergence greenhouse herbicide test, visual injury rating 0-100
From the text: (§1) Seeds of plant species selected from barnyardgrass (Echinochloa crus-galli), large (Lg) crabgrass (Digitaria sanguinalis), giant foxtail (Setaria faberii), morningglory (Ipomoea spp.), pigweed (Amaranthus retroflexus), velvetleaf (Abutilon theophrasti), wheat (Triticum aestivum), and corn (Zea mays) were planted into a blend of loam soil and sand and treated preemergence with a directed soil spray using test chemicals formulated in a non-phytotoxic solvent mixture which included a surfactant. At the same time these species were also treated with postemergence applications of test chemicals formulated in the same manner. Plants ranged in height from 2 to 10 cm and were in the one- to two-leaf stage for the postemergence treatment. Treated plants and untreated controls were maintained in a greenhouse for approximately 10 days, after which time all treated plants were compared to untreated controls and visually evaluated for injury. Plant response ratings, summarized in Table A, are based on a 0 to 100 scale where 0 is no effect and 100 is complete control. A dash (-) response means no test result.

corn (Zea mays) = assay: as above
From the text: as §1

[2] = tested on: large (Lg) crabgrass (Digitaria sanguinalis); assay: as above
From the text: as §1

[3] = tested on: barnyardgrass (Echinochloa crus-galli); assay: as above
From the text: as §1

[4] = tested on: giant foxtail (Setaria faberii); assay: as above
From the text: as §1

[5] = tested on: pigweed (Amaranthus retroflexus); assay: as above
From the text: as §1

[6] = tested on: wheat (Triticum aestivum); assay: as above
From the text: as §1

rice (Oryza sativa) = assay: Test B flooded paddy test, plant response rating 0-100; settings: Flood, 250 g ai/ha; scale 0 to 100 (0 no effect, 100 complete control); 13 to 15 days
From the text: (§2) At time of treatment, test pots were flooded to 3 cm above the soil surface, treated by application of test compounds directly to the paddy water, and then maintained at that water depth for the duration of the test. Treated plants and controls were maintained in a greenhouse for 13 to 15 days, after which time all species were compared to controls and visually evaluated. […] A dash (-) response means no test result.

[7] = tested on: barnyardgrass (Echinochloa crus-galli); assay: as above; settings: Flood, 250 g ai/ha; scale 0 to 100 (0 no effect, 100 complete control); 13 to 15 days
From the text: as §2

[8] = tested on: sedge, umbrella (small-flower umbrella sedge, Cyperus difformis); assay: as above; settings: Flood, 250 g ai/ha; scale 0 to 100 (0 no effect, 100 complete control); 13 to 15 days
From the text: as §2

[9] = tested on: ducksalad (Heteranthera limosa); assay: as above; settings: Flood, 250 g ai/ha; scale 0 to 100 (0 no effect, 100 complete control); 13 to 15 days
From the text: as §2

[10] = tested on: morningglory (Ipomoea spp.); assay: Test A pre-/postemergence greenhouse herbicide test, visual injury rating 0-100
From the text: as §1

CCn1cc(C(=O)c2ccccc2)c(-c2cc(F)cc(Cl)c2)n1 [Compound 46]
Plant response rating (0 to 100 scale), Velvetleaf ([1]; Postemergence, 1000 g ai/ha): 90
Plant response rating (0 to 100 scale), Velvetleaf ([1]; Preemergence, 1000 g ai/ha): 90
Plant response rating (0 to 100 scale), Corn (corn (Zea mays); Postemergence, 1000 g ai/ha): 0
Plant response rating (0 to 100 scale), Corn (corn (Zea mays); Preemergence, 1000 g ai/ha): 0
Plant response rating (0 to 100 scale), Crabgrass, Large ([2]; Postemergence, 1000 g ai/ha): 0
Plant response rating (0 to 100 scale), Crabgrass, Large ([2]; Preemergence, 1000 g ai/ha): 0
Plant response rating (0 to 100 scale), Barnyardgrass ([3]; Postemergence, 1000 g ai/ha): 0
Plant response rating (0 to 100 scale), Barnyardgrass ([3]; Preemergence, 1000 g ai/ha): 0
Plant response rating (0 to 100 scale), Foxtail, Giant ([4]; Postemergence, 1000 g ai/ha): 0
Plant response rating (0 to 100 scale), Foxtail, Giant ([4]; Preemergence, 1000 g ai/ha): 0
Plant response rating (0 to 100 scale), Pigweed ([5]; Postemergence, 1000 g ai/ha): 90
Plant response rating (0 to 100 scale), Pigweed ([5]; Preemergence, 1000 g ai/ha): 100
Plant response rating (0 to 100 scale), Wheat ([6]; Postemergence, 1000 g ai/ha): 0
Plant response rating (0 to 100 scale), Wheat ([6]; Preemergence, 1000 g ai/ha): 0
Plant response rating, Rice (rice (Oryza sativa)): 0
Plant response rating, Barnyardgrass [7]: 0
Plant response rating, Sedge, Umbrella [8]: 0
Plant response rating, Ducksalad [9]: 0

Cn1cc(C(=O)c2ccccc2)c(-c2cc(F)cc(Cl)c2)n1 [Compound 47]
Plant response rating (0 to 100 scale), Velvetleaf ([1]; Postemergence, 1000 g ai/ha): 90
Plant response rating (0 to 100 scale), Velvetleaf ([1]; Preemergence, 1000 g ai/ha): 90
Plant response rating (0 to 100 scale), Corn (corn (Zea mays); Postemergence, 1000 g ai/ha): 0
Plant response rating (0 to 100 scale), Corn (corn (Zea mays); Preemergence, 1000 g ai/ha): 0
Plant response rating (0 to 100 scale), Crabgrass, Large ([2]; Postemergence, 1000 g ai/ha): 0
Plant response rating (0 to 100 scale), Crabgrass, Large ([2]; Preemergence, 1000 g ai/ha): 0
Plant response rating (0 to 100 scale), Barnyardgrass ([3]; Postemergence, 1000 g ai/ha): 0
Plant response rating (0 to 100 scale), Barnyardgrass ([3]; Preemergence, 1000 g ai/ha): 0
Plant response rating (0 to 100 scale), Foxtail, Giant ([4]; Postemergence, 1000 g ai/ha): 0
Plant response rating (0 to 100 scale), Foxtail, Giant ([4]; Preemergence, 1000 g ai/ha): 0
Plant response rating (0 to 100 scale), Pigweed ([5]; Postemergence, 1000 g ai/ha): 90
Plant response rating (0 to 100 scale), Pigweed ([5]; Preemergence, 1000 g ai/ha): 80
Plant response rating (0 to 100 scale), Wheat ([6]; Postemergence, 1000 g ai/ha): 0
Plant response rating (0 to 100 scale), Wheat ([6]; Preemergence, 1000 g ai/ha): 0
Plant response rating, Rice (rice (Oryza sativa)): 0
Plant response rating, Barnyardgrass [7]: 0
Plant response rating, Sedge, Umbrella [8]: 0
Plant response rating, Ducksalad [9]: 0

Clc1cc(Cl)cc(-c2n[nH]cc2C2(c3ccccc3)SCCS2)c1 [Compound 69]
Plant response rating (0 to 100 scale), Morningglory ([10]; Postemergence, 125 g ai/ha): 0
Plant response rating (0 to 100 scale), Morningglory ([10]; Postemergence, 500 g ai/ha): 0
Morningglory plant response rating (0 = no effect, 100 = complete control) ([10]; Preemergence, 125 g ai/ha): 0
Plant response rating (0 to 100 scale), Morningglory ([10]; Preemergence, 500 g ai/ha): 0
Plant response rating (0 to 100 scale), Velvetleaf ([1]; Postemergence, 125 g ai/ha): 20
Plant response rating (0 to 100 scale), Velvetleaf ([1]; Postemergence, 500 g ai/ha): 80
Velvetleaf plant response rating (0 = no effect, 100 = complete control) ([1]; Preemergence, 125 g ai/ha): 0
Plant response rating (0 to 100 scale), Velvetleaf ([1]; Preemergence, 500 g ai/ha): 20
Plant response rating (0 to 100 scale), Corn (corn (Zea mays); Postemergence, 125 g ai/ha): 0
Plant response rating (0 to 100 scale), Corn (corn (Zea mays); Postemergence, 500 g ai/ha): 0
Corn plant response rating (0 = no effect, 100 = complete control) (corn (Zea mays); Preemergence, 125 g ai/ha): 0
Plant response rating (0 to 100 scale), Corn (corn (Zea mays); Preemergence, 500 g ai/ha): 0
Plant response rating (0 to 100 scale), Crabgrass, Large ([2]; Postemergence, 125 g ai/ha): 0
Plant response rating (0 to 100 scale), Crabgrass, Large ([2]; Postemergence, 500 g ai/ha): 0
Crabgrass, Large plant response rating (0 = no effect, 100 = complete control) ([2]; Preemergence, 125 g ai/ha): 0
Plant response rating (0 to 100 scale), Crabgrass, Large ([2]; Preemergence, 500 g ai/ha): 0
Plant response rating (0 to 100 scale), Barnyardgrass ([3]; Postemergence, 125 g ai/ha): 0
Plant response rating (0 to 100 scale), Barnyardgrass ([3]; Postemergence, 500 g ai/ha): 0
Barnyardgrass plant response rating (0 = no effect, 100 = complete control) ([3]; Preemergence, 125 g ai/ha): 0
Plant response rating (0 to 100 scale), Barnyardgrass ([3]; Preemergence, 500 g ai/ha): 0
Plant response rating (0 to 100 scale), Foxtail, Giant ([4]; Postemergence, 125 g ai/ha): 0
Plant response rating (0 to 100 scale), Foxtail, Giant ([4]; Postemergence, 500 g ai/ha): 0
Foxtail, Giant plant response rating (0 = no effect, 100 = complete control) ([4]; Preemergence, 125 g ai/ha): 0
Plant response rating (0 to 100 scale), Foxtail, Giant ([4]; Preemergence, 500 g ai/ha): 0
Plant response rating (0 to 100 scale), Pigweed ([5]; Postemergence, 125 g ai/ha): 30
Plant response rating (0 to 100 scale), Pigweed ([5]; Postemergence, 500 g ai/ha): 80
Pigweed plant response rating (0 = no effect, 100 = complete control) ([5]; Preemergence, 125 g ai/ha): 0
Plant response rating (0 to 100 scale), Pigweed ([5]; Preemergence, 500 g ai/ha): 40
Plant response rating (0 to 100 scale), Wheat ([6]; Postemergence, 125 g ai/ha): 0
Plant response rating (0 to 100 scale), Wheat ([6]; Postemergence, 500 g ai/ha): 0
Wheat plant response rating (0 = no effect, 100 = complete control) ([6]; Preemergence, 125 g ai/ha): 0
